Data from publication PMC10671360, “In Silico and In Vitro Study towards the Rational Design of 4,4′-Disarylbisthiazoles as a Selective α-Synucleinopathy Biomarker” (International Journal of Molecular Sciences, 2023).
“Also recorded” adds a separate entry of the source.

How the values were obtained:
[1] = Solubility in the incubation medium of the binding assays; format: physicochemical; settings: incubation buffer of the binding assays
[2] = biological target: T1, recombinant α-syn fibrils (Homo sapiens, UniProt P37840); assay: Competition binding assay against [^3H]PiB, α-syn fibrils; settings: for Selectivity Aβ/α-syn / Selectivity tau/α-syn: ratio of Ki, [^3H]PiB was used
T1 construct: made in house

[3] = biological target: T1, recombinant α-syn fibrils; assay: Competition binding assay against [^3H]DCVJ, α-syn fibrils; settings: for Ki: [^3H]DCVJ was used (10 nM), α-synuclein aggregates 125 nM; for Selectivity Aβ/α-syn / Selectivity tau/α-syn: ratio of Ki, [^3H]DCVJ was used
Procedure: The incubation of purified recombinant α-synuclein monomer (10 mg/mL) obtained as described by Uzuegbunam was carried out in PBS (pH 7.4) at 37 °C. The solution was left shaking at 900 rpm in an Eppendorf Thermomixer for up to 84 h. Determination of the concentration of the formed fibrils (α-syn) was carried out following the centrifugation of the reaction vial at 12,000× g for 5 min. The pellet obtained was washed thrice with 20 mM of Tris-HCl, pH 7.4. The supernatants from the three centrifugation steps were combined, and the concentration of the monomer in the resulting supernatant was determined in a BCA assay (Thermo Fisher Scientific, Waltham, MA, USA) (with a BSA standard curve). Determination of the concentration of α-syn was carried out by subtracting the amount of α-synuclein monomer in the supernatant from the initial amount used for fibrillation.
(§1) The pellets of the fibrils obtained above (Section 4.2.1) were resuspended in 20 mM of Tris-HCl, pH 7.4 and diluted as needed for the binding assays.
(§2) A fixed concentration of [^3H]DCVJ (10 nM) and α-synuclein aggregates (125 nM), prepared as described above (Section 4.2.3), was used with different final concentrations of the DABTAs from 0.01 to 100 nM (see SI Figure S1). The experiment was carried out in quintuplicate for each concentration. The mixture was incubated for 2 h in a final volume of 200 μL per well after dilution with 20 mM of Tris-HCl, pH 7.4. The incubated mixtures were filtered through a Perkin Elmer GF/B glass filter via a TOMTEC cell harvester and immediately washed thrice with 1 mL of deionized water. The filters containing the bound ligands were dried and afterwards mixed with 3 mL of BetaPlate Scint solution (Perkin Elmer Life Sciences, Waltham, MA, USA) and left there for 2 h before counting in a Wallac 1450 MicroBeta TriLux Liquid Scintillation Counter (PerkinElmer Life Sciences, Waltham, MA, USA). For the determination of the inhibition constants, data were analyzed using GraphPad Prism software (version 7.0) to obtain IC50 values by fitting the data to the equation Y = bottom + (top − bottom)/(1 + 10(x − log IC50)). Ki values were calculated from IC50 values using the equation Ki = IC50/(1 + [radioligand]/Kd). […] Further protocol was carried out as for [^3H]DCVJ (see SI Figure S3).

tau fibrils = tau fibrils (Homo sapiens, UniProt P10636); assay: Competition binding assay against [^3H]PiB, tau fibrils
Sequence of tau fibrils (P10636 2-758): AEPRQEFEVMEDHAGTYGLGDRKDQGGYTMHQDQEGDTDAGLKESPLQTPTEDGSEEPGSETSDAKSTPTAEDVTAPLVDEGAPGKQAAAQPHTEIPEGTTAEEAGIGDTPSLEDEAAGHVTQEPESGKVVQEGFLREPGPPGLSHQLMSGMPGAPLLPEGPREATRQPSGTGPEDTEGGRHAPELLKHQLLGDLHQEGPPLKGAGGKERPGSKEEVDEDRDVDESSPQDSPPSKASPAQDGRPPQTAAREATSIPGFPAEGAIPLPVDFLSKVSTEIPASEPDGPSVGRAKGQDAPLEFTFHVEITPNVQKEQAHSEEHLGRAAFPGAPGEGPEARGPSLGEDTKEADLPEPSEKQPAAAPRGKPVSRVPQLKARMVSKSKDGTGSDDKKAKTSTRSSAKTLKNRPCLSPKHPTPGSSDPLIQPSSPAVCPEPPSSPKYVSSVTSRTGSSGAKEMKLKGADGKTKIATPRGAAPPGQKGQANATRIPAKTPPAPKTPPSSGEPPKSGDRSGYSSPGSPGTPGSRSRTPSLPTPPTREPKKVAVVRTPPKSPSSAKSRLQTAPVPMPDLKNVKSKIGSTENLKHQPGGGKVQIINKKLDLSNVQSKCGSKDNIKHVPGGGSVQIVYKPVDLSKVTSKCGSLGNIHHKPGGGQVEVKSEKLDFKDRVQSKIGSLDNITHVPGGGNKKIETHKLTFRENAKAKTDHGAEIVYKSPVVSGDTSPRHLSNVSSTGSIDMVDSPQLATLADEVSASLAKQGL
Procedure: as §2, with “Recombinant tau monomer (R&D systems, Minneapolis, MN, USA) was dissolved in 20 mM of Tris HCl, pH 8.0, 100 mM of NaCl, 25 μM of low-MW heparin, and 0.5 mM of dithiothreitol to a final concentration of 300 µg/mL. The mixture was incubated with shaking at 900 rpm at 37 °C for 48 h. To separate the non-aggregated monomers from the formed fibrils, the reaction mixture was centrifuged at 12,000× g for 5 min, and the resulting pellet was washed three times with 500 μL of 20 mM Tris-HCl, pH 7.4. The supernatants from the three centrifugation steps were combined, and the concentration of the monomer in the resulting supernatant was determined in a BCA assay(Thermo Fisher Scientific, Waltham, MA, USA) (with a BSA standard curve). Determination of the concentration of fibrils formed was carried out by subtracting the amount of tau peptide monomer in the supernatant from the initial amount used for fibrillation. The pellets of the fibrils obtained above (Section 4.2.1) were resuspended in 20 mM of Tris-HCl, pH 7.4 and diluted as needed for the binding assays. A fixed” for “A fixed”, “Figure S3). […] Further procedures followed the same already described in Section 4.2.3.1 (See SI Figure S4).” for “Figure S3).”

Aβ1−42 fibrils = biological target: T2, Aβ1−42 fibrils (Homo sapiens, UniProt P05067); assay: Competition binding assay against [^3H]PiB, Aβ1−42 fibrils; settings: read-out: Ki Aβ
T2 construct: 1 mg of β-amyloid1–42 peptide (Abcam, Cambridge, UK); purchased Abcam
T2 sequence (P05067 672-713): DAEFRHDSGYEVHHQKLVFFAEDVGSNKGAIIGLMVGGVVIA
Procedure: After the dissolution of 1 mg of β-amyloid1–42 peptide (Abcam, Cambridge, UK) in 50 μL of DMSO, 925 μL of Milli-Q® water was added to it, and the mixture was stirred. Finally, 25 μL of 1M Tris HCl, pH 7.4 was added to bring the final peptide concentration to 1 mg/mL. The mixture was then left to incubate at 37 °C for 30 h with shaking at 900 rpm. To separate the non-aggregated monomers from the formed fibrils, the reaction mixture was centrifuged at 12,000× g for 5 min, and the resulting pellet was washed three times with 500 μL of 20 mM Tris-HCl, pH 7.4. The supernatants from the three centrifugation steps were combined, and the concentration of the monomer in the resulting supernatant was determined in a BCA assay (Thermo Fisher Scientific, Waltham, MA, USA) (with a BSA standard curve). Determination of the concentration of fibrils formed was carried out by subtracting the amount of β-amyloid1−42 peptide monomer in the supernatant from the initial amount used for fibrillation.
as §1, §2
Further procedures followed the same already described in Section 4.2.3.1 (See SI Figure S4).

Row | Structure (SMILES) | Ki [2] [µM] | Selectivity Aβ/α-syn [2] | Selectivity tau/α-syn [2] | Ki [3] [µM] | Ki (tau fibrils) [µM] | Ki (Aβ1−42 fibrils) [µM] | Selectivity Aβ/α-syn [3] | Selectivity tau/α-syn [3] | solubility in the incubation medium [1]
1 | FCCOCCOCCOc1cnc(-c2csc(-c3nc(-c4ccc5c(c4)OCO5)cs3)n2)nc1 [f7, 4-(Benzo[d][1,3]dioxol-5-yl)-4′-(5-(2-(2-(2-fluoroethoxy)ethoxy)ethoxy)pyrimidin-2-yl)-2,2′-bithiazole] | 0.00117 | 65.3 | 206.9 | 0.00151 | 0.242 | 0.0764 |  |  | 
2 | FCCOCCOc1ccc(-c2csc(-c3nc(-c4cnc5c(c4)OCO5)cs3)n2)c(OCCOCCF)c1 [f20, 6-(4′-(2,4-Bis(2-(2-fluoroethoxy)ethoxy)phenyl)-[2,2′-bithiazol]-4-yl)-[1,3]dioxolo[4,5-b]pyridine] | 0.00131 | 168.9 | 621.8 |  | 0.815 | 0.221 |  |  | 
3 | COc1ccc(-c2csc(-c3nc(-c4cnc5c(c4)OCO5)cs3)n2)cc1OCCOCCF [f9, 6-(4′-(3-(2-(2-Fluoroethoxy)ethoxy)-4-methoxyphenyl)-[2,2′-bithiazol]-4-yl)-[1,3]dioxolo [4,5-b]pyridine] | 0.00096 | 49.6 | 1177.1 | 0.00084 | 1.13 | 0.0476 |  |  | 
4 | FCCOCCOCCOc1ccc(-c2csc(-c3nc(-c4cnc5c(c4)OCO5)cs3)n2)cc1 [f12, 6-(4′-(4-(2-(2-(2-Fluoroethoxy)ethoxy)ethoxy)phenyl)-[2,2′-bithiazol]-4-yl)-[1,3]dioxolo[4,5-b]pyridine] | 0.00092 | 42.1 | 1068.5 |  | 0.983 | 0.0387 |  |  | 
5 | FCCOCCOCCOc1ccc(-c2csc(-c3nc(-c4cnc5c(c4)OCO5)cs3)n2)cc1F [f10, 6-(4′-(3-Fluoro-4-(2-(2-(2-fluoroethoxy)ethoxy)ethoxy)phenyl)-[2,2′-bithiazol]-4-yl)-[1,3]dioxolo[4,5-b]pyridine] | 0.00093 | 40.1 |  | 0.001 | 0.615 | 0.0373 |  |  | 
6 | FCCOCCOCCOc1cnc(-c2csc(-c3nc(-c4cnc5c(c4)OCO5)cs3)n2)nc1 [f13, 6-(4′-(5-(2-(2-(2-Fluoroethoxy)ethoxy)ethoxy)pyrimidin-2-yl)-[2,2′-bithiazol]-4-yl)-[1,3]dioxolo[4,5-b]pyridine] | 0.00038 | 122.6 | 315.8 |  | 0.12 | 0.0466 |  |  | 
7 | COc1ccc(-c2csc(-c3nc(-c4cnc5c(c4)OCO5)cs3)n2)cc1F [d4, 6-(4′-(3-Fluoro-4-methoxyphenyl)-[2,2′-bithiazol]-4-yl)-[1,3]dioxolo[4,5-b]pyridine] | 0.00256 | 34.1 | 142.2 |  | 0.364 | 0.0874 | 417.1 | >1515.2 | 

More lines, in order of falling Ki [2], values ahead:

Row | Ki [2] [µM] | Selectivity Aβ/α-syn [2] | Selectivity tau/α-syn [2] | Ki [3] [µM] | Ki (tau fibrils) [µM] | Ki (Aβ1−42 fibrils) [µM] | Selectivity Aβ/α-syn [3] | Selectivity tau/α-syn [3] | Structure (SMILES) | solubility in the incubation medium [1]
8 | 0.00371 | 26.9 |  |  | 0.499 | 0.0996 |  |  | FCCOc1ccc(-c2csc(-c3nc(-c4ccc5c(c4)OCO5)cs3)n2)cc1 [f11, 4-(Benzo[d][1,3]dioxol-5-yl)-4′-(4-(2-fluoroethoxy)phenyl)-2,2′-bithiazole] | 
9 | 0.00245 | 24.2 | 288.6 |  | 0.707 | 0.0593 |  |  | COc1cnc(-c2csc(-c3nc(-c4ccc5c(c4)OCO5)cs3)n2)nc1 [f15, 4-(Benzo[d][1,3]dioxol-5-yl)-4′-(5-methoxypyrimidin-2-yl)-2,2′-bithiazole] | 
10 | 0.00232 | 63.4 | 293.4 |  | 0.681 | 0.147 | 198.1 | >819.7 | COc1ccc(-c2csc(-c3nc(-c4ccc5c(c4)OCO5)cs3)n2)cc1F [d2, 4-(Benzo[d][1,3]dioxol-5-yl)-4′-(3-fluoro-4-methoxyphenyl)-2,2′-bithiazole] | 
11 | 0.0023 |  |  |  |  |  |  |  | FCCOCCOc1cnc(-c2csc(-c3nc(-c4cnc5c(c4)OCO5)cs3)n2)nc1 [f8, 6-(4′-(5-(2-(2-Fluoroethoxy)ethoxy)pyrimidin-2-yl)-[2,2′-bithiazol]-4-yl)-[1,3]dioxolo[4,5-b]pyridine] | low solubility; also recorded: decreased solubility
12 | 0.00178 | 94.1 | 288.0 |  | 0.513 | 0.167 |  |  | COc1ccc(-c2csc(-c3nc(-c4cnc5c(c4)OCO5)cs3)n2)cc1 [f17, 6-(4′-(4-Methoxyphenyl)-[2,2′-bithiazol]-4-yl)-[1,3]dioxolo[4,5-b]pyridine] | 
13 | 0.00174 | 120.8 | 380.6 |  | 0.662 | 0.21 |  |  | COc1ccc(-c2csc(-c3nc(-c4ccc5c(c4)OCO5)cs3)n2)cc1OCCOCCOCCF [f14, 4-(Benzo[d][1,3]dioxol-5-yl)-4′-(3-(2-(2-(2-fluoroethoxy)ethoxy)ethoxy)-4-methoxyphenyl)-2,2′-bithiazole] | 
14 | 0.00135 | 110.1 | 497.3 |  | 0.671 | 0.149 |  |  | COc1ccc(-c2csc(-c3nc(-c4cnc5c(c4)OCO5)cs3)n2)c(OC)c1 [f19, 6-(4′-(2,4-Dimethoxyphenyl)-[2,2′-bithiazol]-4-yl)-[1,3]dioxolo[4,5-b]pyridine] | 
15 | 0.00117 |  |  |  |  |  |  |  | ICCOCCOCCOc1cnc(-c2csc(-c3nc(-c4cnc5c(c4)OCO5)cs3)n2)nc1 [h13, 6-(4′-(5-(2-(2-(2-Iodoethoxy)ethoxy)ethoxy)pyrimidin-2-yl)-[2,2′-bithiazol]-4-yl)-[1,3]dioxolo[4,5-b]pyridine] | low solubility; also recorded: decreased solubility
